Type in all cases: functional
In assay [1] the test system is Enterococcus faecium. The experiment in a line: Antibacterial activity against Enterococcus faecium ATCC 49452.
Assay [2] concerns Enterococcus faecalis. Description: Antibacterial activity against Enterococcus faecalis ATCC 6569.
The subject of assay [3] is Enterococcus faecium. Description: Antibacterial activity against Enterococcus faecium ATCC 49452 at 10 % serum. Particulars: ATCC 49452, Serum.
For assay [4], the system named is Staphylococcus aureus. Description: Antibacterial activity against methicillin-resistant staphylococcus aureus ATCC 43300 at 0 % serum.
Assay [5] concerns Enterococcus faecalis. Description: Antibacterial activity against Enterococcus faecalis ATCC 6569 at 10 % serum. Particulars: ATCC 6569, Serum.
For assay [6], the system named is Enterococcus faecium. The experiment in a line: Antibacterial activity against Enterococcus faecium ATCC 49452 at 0 % serum.
Assay [7] has as its system Enterococcus faecalis. The experiment in a line: Antibacterial activity against Enterococcus faecalis ATCC 6569 at 0 % serum.
Assay [8] has as its system Staphylococcus aureus. Description: Antibacterial activity against methicillin-resistant staphylococcus aureus ATCC 43300 at 10 % serum.
For assay [9], the system named is Staphylococcus aureus. The experiment in a line: Antibacterial activity against methicillin susceptible staphylococcus aureus ATCC 29213 at 0 % serum.
The subject of assay [10] is Staphylococcus aureus. Description: Antibacterial activity against methicillin susceptible staphylococcus aureus ATCC 29213 at 10 % serum.
For assay [11], the system named is Staphylococcus aureus. Description: Antibacterial activity against methicillin susceptible staphylococcus aureus ATCC 29213.
The subject of assay [12] is Staphylococcus aureus. Description: Antibacterial activity against methicillin-resistant staphylococcus aureus ATCC 43300.

Experimental findings from ChEMBL document CHEMBL1136464, “Array synthesis of novel lipodepsipeptide” (Bioorg Med Chem Lett, 2003) are described below.

In brackets after ≈: the same amount, converted by molar mass.

Regarding `CCCCCCCCCC(=O)N[C@@H](Cc1c[nH]c2ccccc12)C(=O)N[C@H](CC(N)=O)C(=O)N[C@@H](CCO)C(=O)N[C@@H]1C(=O)NCC(=O)N[C@@H](CCCNC(=O)c2c(N)cccc2F)C(=O)N[C@@H](CC(=O)O)C(=O)N[C@H](C)C(=O)N[C@@H](CC(=O)O)C(=O)NCC(=O)N[C@H](CO)C(=O)N[C@@H]([C@H](C)CC(=O)O)C(=O)N[C@@H](CC(=O)c2ccccc2N)C(=O)O[C@@H]1C`, the MIC in the assay on Enterococcus faecium [1] and against Enterococcus faecalis [2] was 3.1 µg/mL (≈ 1.78 µM) each time.
With `CCCCCCCCCC(=O)N[C@@H](Cc1c[nH]c2ccccc12)C(=O)N[C@H](CC(N)=O)C(=O)N[C@@H](CCO)C(=O)N[C@@H]1C(=O)NCC(=O)N[C@@H](CCCNCc2ccc(/C=C/C(=O)N3CCN(c4ccc(F)cc4)CC3)cc2)C(=O)N[C@@H](CC(=O)O)C(=O)N[C@H](C)C(=O)N[C@@H](CC(=O)O)C(=O)NCC(=O)N[C@H](CO)C(=O)N[C@@H]([C@H](C)CC(=O)O)C(=O)N[C@@H](CC(=O)c2ccccc2N)C(=O)O[C@@H]1C`, the MIC (commonly the lowest concentration that inhibits growth of the organism) with Enterococcus faecium [3] was found to be 12.5 µg/mL (≈ 6.48 µM); in the assay on Staphylococcus aureus [4], 0.78 µg/mL (≈ 0.404 µM); in the assay on Enterococcus faecalis [5], 12.5 µg/mL (≈ 6.48 µM); in the assay with Enterococcus faecium [6], 3.13 µg/mL (≈ 1.62 µM); in the assay on Enterococcus faecalis [7], 1.56 µg/mL (≈ 0.809 µM); against Staphylococcus aureus [8], 3.13 µg/mL (≈ 1.62 µM). In addition, the MIC against Staphylococcus aureus [9] worked out at 0.39 µg/mL (≈ 0.202 µM); in the assay with Staphylococcus aureus [10] it was 6.25 µg/mL (≈ 3.24 µM).
In the case of `CCCCCCCCCC(=O)N[C@@H](Cc1c[nH]c2ccccc12)C(=O)N[C@H](CC(N)=O)C(=O)N[C@@H](CCO)C(=O)N[C@@H]1C(=O)NCC(=O)N[C@@H](CCCNCc2ccc(OCc3ccc(F)cc3)c([N+](=O)[O-])c2)C(=O)N[C@@H](CC(=O)O)C(=O)N[C@H](C)C(=O)N[C@@H](CC(=O)O)C(=O)NCC(=O)N[C@H](CO)C(=O)N[C@@H]([C@H](C)CC(=O)O)C(=O)N[C@@H](CC(=O)c2ccccc2N)C(=O)O[C@@H]1C`, the MIC came out at 25 µg/mL (≈ 13.4 µM) against Enterococcus faecium [3]; 0.39 µg/mL (≈ 0.209 µM) against Staphylococcus aureus [4]; 12.5 µg/mL (≈ 6.7 µM) with Enterococcus faecalis [5]; 1.56 µg/mL (≈ 0.836 µM) against Enterococcus faecium [6]; 0.78 µg/mL (≈ 0.418 µM) in the assay on Enterococcus faecalis [7]; 3.13 µg/mL (≈ 1.68 µM) in the assay with Staphylococcus aureus [8]. In addition, the values for the MIC in the assay with Staphylococcus aureus [9] and with Staphylococcus aureus [10] were 0.78 µg/mL (≈ 0.418 µM) and 6.25 µg/mL (≈ 3.35 µM), respectively.
Regarding `CCCCCCCCCC(=O)N[C@@H](Cc1c[nH]c2ccccc12)C(=O)N[C@H](CC(N)=O)C(=O)N[C@@H](CCO)C(=O)N[C@@H]1C(=O)NCC(=O)N[C@@H](CCCNCc2ccc(S(=O)(=O)N3CCN(c4ccccc4)CC3)cc2)C(=O)N[C@@H](CC(=O)O)C(=O)N[C@H](C)C(=O)N[C@@H](CC(=O)O)C(=O)NCC(=O)N[C@H](CO)C(=O)N[C@@H]([C@H](C)CC(=O)O)C(=O)N[C@@H](CC(=O)c2ccccc2N)C(=O)O[C@@H]1C`, the MIC was found to be 12.5 µg/mL (≈ 6.51 µM) against Enterococcus faecium [3]; 0.78 µg/mL (≈ 0.406 µM) in the assay with Staphylococcus aureus [4]; 6.25 µg/mL (≈ 3.25 µM) against Enterococcus faecalis [5]; 1.56 µg/mL (≈ 0.812 µM) against Enterococcus faecium [6]; 0.78 µg/mL (≈ 0.406 µM) in the assay on Enterococcus faecalis [7]; 0.78 µg/mL (≈ 0.406 µM) in the assay with Staphylococcus aureus [8]. Also, the MIC was 0.39 µg/mL (≈ 0.203 µM) in the assay on Staphylococcus aureus [9] and 3.13 µg/mL (≈ 1.63 µM) in the assay on Staphylococcus aureus [10].
Turning to `CCCCCCCCCC(=O)N[C@@H](Cc1c[nH]c2ccccc12)C(=O)N[C@H](CC(N)=O)C(=O)N[C@@H](CCO)C(=O)N[C@@H]1C(=O)NCC(=O)N[C@@H](CCCNCc2ccc3ccccc3n2)C(=O)N[C@@H](CC(=O)O)C(=O)N[C@H](C)C(=O)N[C@@H](CC(=O)O)C(=O)NCC(=O)N[C@H](CO)C(=O)N[C@@H]([C@H](C)CC(=O)O)C(=O)N[C@@H](CC(=O)c2ccccc2N)C(=O)O[C@@H]1C`, the MIC against Enterococcus faecium [3] turned out to be 25 µg/mL (≈ 14.3 µM); with Staphylococcus aureus [4], 0.78 µg/mL (≈ 0.446 µM); in the assay with Enterococcus faecalis [5], 12.5 µg/mL (≈ 7.15 µM); in the assay with Enterococcus faecium [6], 6.25 µg/mL (≈ 3.58 µM); with Enterococcus faecalis [7], 6.25 µg/mL (≈ 3.58 µM); against Staphylococcus aureus [8], 0.78 µg/mL (≈ 0.446 µM). Moreover, the MIC against Staphylococcus aureus [9] came out at 0.78 µg/mL (≈ 0.446 µM); with Staphylococcus aureus [10] it was 1.56 µg/mL (≈ 0.893 µM).
As to `CCCCCCCCCC(=O)N[C@@H](Cc1c[nH]c2ccccc12)C(=O)N[C@H](CC(N)=O)C(=O)N[C@@H](CCO)C(=O)N[C@@H]1C(=O)NCC(=O)N[C@@H](CCCNCc2ccc(OCc3ccccc3)c(Cl)c2)C(=O)N[C@@H](CC(=O)O)C(=O)N[C@H](C)C(=O)N[C@@H](CC(=O)O)C(=O)NCC(=O)N[C@H](CO)C(=O)N[C@@H]([C@H](C)CC(=O)O)C(=O)N[C@@H](CC(=O)c2ccccc2N)C(=O)O[C@@H]1C`, the MIC came out at 25 µg/mL (≈ 13.6 µM) in the assay with Enterococcus faecium [3]; 0.78 µg/mL (≈ 0.425 µM) in the assay on Staphylococcus aureus [4]; 12.5 µg/mL (≈ 6.8 µM) against Enterococcus faecalis [5]; 0.39 µg/mL (≈ 0.212 µM) in the assay on Enterococcus faecium [6]; 0.78 µg/mL (≈ 0.425 µM) against Enterococcus faecalis [7]; 3.13 µg/mL (≈ 1.7 µM) in the assay with Staphylococcus aureus [8]. Besides, the MIC was 0.78 µg/mL (≈ 0.425 µM) with Staphylococcus aureus [9] and 3.13 µg/mL (≈ 1.7 µM) in the assay on Staphylococcus aureus [10].
Consider `CCCCCCCCCC(=O)N[C@@H](Cc1c[nH]c2ccccc12)C(=O)N[C@H](CC(N)=O)C(=O)N[C@@H](CCO)C(=O)N[C@@H]1C(=O)NCC(=O)N[C@@H](CCCNC(=O)c2ccccc2S(=O)(=O)O)C(=O)N[C@@H](CC(=O)O)C(=O)N[C@H](C)C(=O)N[C@@H](CC(=O)O)C(=O)NCC(=O)N[C@H](CO)C(=O)N[C@@H]([C@H](C)CC(=O)O)C(=O)N[C@@H](CC(=O)c2ccccc2N)C(=O)O[C@@H]1C`, for which the MIC in the assay on Enterococcus faecium [1], in the assay on Enterococcus faecalis [2], against Staphylococcus aureus [11] and against Staphylococcus aureus [12] was 100 µg/mL (≈ 55.8 µM) each time.
